Data as given in patent publication US20080146538A1, “Compounds 614” (priority 2006, published 2008).
Counter-ions that a name gives are not always drawn.

Key:
human NK1 receptor = molecular target: T1, human NK1 receptor (Homo sapiens, UniProt P25103); assay: FLIPR assay, inhibition of human NK1 receptor activation (intracellular Ca2+); assay type: cell-based
T1 construct: Human NK1 receptor cDNA (obtained from RNA-PCR from lung tissue) was subcloned into pRcCMV (Invitrogen); expressed in transfected cells
Method: (§1) Chinese Hamster Ovary (CHO) K1 cells (obtained from ATCC) were stably transfected with the human NK2 receptor (hNK2R cDNA in pRc/CMV, Invitrogen) or the human NK3 receptor (hNK3R in pcDNA 3.1/Hygro (+)/IRES/CD8, Invitrogen vector modified at AstraZeneca EST-Bio UK, Alderley Park). The cells were transfected with the cationic lipid reagent LIPOFECTAMINE™ (Invitrogen) and selection was performed with Geneticin (G418, Invitrogen) at 1 mg/ml for the hNK2R transfected cells and with Hygromycin (Invitrogen) at 500 μg/ml for the hNK3R transfected cells. Single cell clones were collected by aid of Fluorescence Activated Cell Sorter (FACS), tested for functionality in a FLIPR assay (see below), expanded in culture and cryopreserved for future use. […]
(§2) The activity of a compound of the invention to inhibit NK1/NK2/NK3 receptor activation measured as NK1/NK2/NK3 receptor mediated increase in intracellular Ca^2+ was assessed by the following procedure:
(§3) CHO cells stably transfected with human NK1, NK2 or NK3 receptors were plated in black walled/clear bottomed 96-well plates (Costar 3904) at 3.5×10^4 cells per well and grown for approximately 24 h in normal growth media in a 37° C. […] The response was measured as the peak relative fluorescence after agonist addition and IC50s were calculated from ten-point concentration-response curves for each compound. […]

[1] = molecular target: hERG-encoded potassium channel (Homo sapiens, UniProt Q12809); assay: Activity against hERG (planar-array-based voltage clamp); assay type: cell-based
From the text: The activity of compounds according to formula I against the hERG-encoded potassium channel can be determined according to Kiss L, et al. Assay Drug Dev Technol. 1 (2003), 127-35: “High throughput ion-channel pharmacology: planar-array-based voltage clamp”.

human NK2 receptor = molecular target: T2, human NK2 receptor (Homo sapiens, UniProt P21452); assay: FLIPR assay, inhibition of human NK2 receptor activation (intracellular Ca2+); assay type: cell-based
T2 construct: expressed in transfected cells
T2 sequence (P21452 1-398): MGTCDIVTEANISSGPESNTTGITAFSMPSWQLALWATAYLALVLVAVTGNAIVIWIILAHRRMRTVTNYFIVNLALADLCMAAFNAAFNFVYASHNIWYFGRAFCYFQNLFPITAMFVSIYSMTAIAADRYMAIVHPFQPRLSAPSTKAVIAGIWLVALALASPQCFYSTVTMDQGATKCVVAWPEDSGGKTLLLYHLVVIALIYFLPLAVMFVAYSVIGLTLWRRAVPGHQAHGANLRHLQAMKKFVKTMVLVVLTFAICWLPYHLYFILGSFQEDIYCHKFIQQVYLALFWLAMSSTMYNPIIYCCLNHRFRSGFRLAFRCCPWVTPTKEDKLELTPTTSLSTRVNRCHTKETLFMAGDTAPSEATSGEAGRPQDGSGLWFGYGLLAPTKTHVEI
Method: as §1, §2, §3

human NK3 receptor = molecular target: T3, human NK3 receptor (Homo sapiens, UniProt P29371); assay: FLIPR assay, inhibition of human NK3 receptor activation (intracellular Ca2+); assay type: cell-based
T3 construct: expressed in transfected cells
T3 sequence (P29371 1-465): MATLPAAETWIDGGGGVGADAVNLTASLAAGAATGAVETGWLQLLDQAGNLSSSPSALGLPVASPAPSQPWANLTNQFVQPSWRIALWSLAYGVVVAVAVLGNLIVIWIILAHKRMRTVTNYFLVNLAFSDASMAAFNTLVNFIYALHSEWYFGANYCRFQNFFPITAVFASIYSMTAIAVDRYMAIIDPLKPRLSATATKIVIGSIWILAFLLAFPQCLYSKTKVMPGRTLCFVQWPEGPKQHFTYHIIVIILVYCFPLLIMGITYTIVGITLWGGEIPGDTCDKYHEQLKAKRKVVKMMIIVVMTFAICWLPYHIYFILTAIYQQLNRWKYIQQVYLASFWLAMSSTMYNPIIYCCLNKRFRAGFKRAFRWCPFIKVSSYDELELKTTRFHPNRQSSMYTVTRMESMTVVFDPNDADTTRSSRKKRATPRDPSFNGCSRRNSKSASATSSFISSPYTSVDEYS
Method: as §1, §2, §3

[2] = Metabolic stability in liver microsomes (intrinsic clearance); assay type: in vitro ADME; details: human, pH 7.4, HLM
Method: The metabolic stability of compounds according to formula I can be determined as described below: The rate of biotransformation can be measured as either metabolite(s) formation or the rate of disappearance of the parent compound. The experimental design involves incubation of low concentrations of substrate (usually 1.0 μM) with liver microsomes (usually 0.5 mg/ml) and taking out aliquotes at varying time points (usually 0, 5, 10, 15, 20, 30, 40 min.). The test compound is usually dissolved in DMSO. The DMSO concentration in the incubation mixture is usually 0.1% or less since more solvent can drastically reduce the activities of some CYP450s. Incubations are done in 100 mM potassium phosphate buffer, pH 7.4 and at 37° C. Acetonitrile or methanol is used to stop the reaction. The parent compound is analysed by HPLC-MS. From the calculated half-life, t1/2, the intrinsic clearance, Clint, is estimated by taking microsomal protein concentration and liver weight is into account.

Sequence of hERG-encoded potassium channel (Q12809 whole entry): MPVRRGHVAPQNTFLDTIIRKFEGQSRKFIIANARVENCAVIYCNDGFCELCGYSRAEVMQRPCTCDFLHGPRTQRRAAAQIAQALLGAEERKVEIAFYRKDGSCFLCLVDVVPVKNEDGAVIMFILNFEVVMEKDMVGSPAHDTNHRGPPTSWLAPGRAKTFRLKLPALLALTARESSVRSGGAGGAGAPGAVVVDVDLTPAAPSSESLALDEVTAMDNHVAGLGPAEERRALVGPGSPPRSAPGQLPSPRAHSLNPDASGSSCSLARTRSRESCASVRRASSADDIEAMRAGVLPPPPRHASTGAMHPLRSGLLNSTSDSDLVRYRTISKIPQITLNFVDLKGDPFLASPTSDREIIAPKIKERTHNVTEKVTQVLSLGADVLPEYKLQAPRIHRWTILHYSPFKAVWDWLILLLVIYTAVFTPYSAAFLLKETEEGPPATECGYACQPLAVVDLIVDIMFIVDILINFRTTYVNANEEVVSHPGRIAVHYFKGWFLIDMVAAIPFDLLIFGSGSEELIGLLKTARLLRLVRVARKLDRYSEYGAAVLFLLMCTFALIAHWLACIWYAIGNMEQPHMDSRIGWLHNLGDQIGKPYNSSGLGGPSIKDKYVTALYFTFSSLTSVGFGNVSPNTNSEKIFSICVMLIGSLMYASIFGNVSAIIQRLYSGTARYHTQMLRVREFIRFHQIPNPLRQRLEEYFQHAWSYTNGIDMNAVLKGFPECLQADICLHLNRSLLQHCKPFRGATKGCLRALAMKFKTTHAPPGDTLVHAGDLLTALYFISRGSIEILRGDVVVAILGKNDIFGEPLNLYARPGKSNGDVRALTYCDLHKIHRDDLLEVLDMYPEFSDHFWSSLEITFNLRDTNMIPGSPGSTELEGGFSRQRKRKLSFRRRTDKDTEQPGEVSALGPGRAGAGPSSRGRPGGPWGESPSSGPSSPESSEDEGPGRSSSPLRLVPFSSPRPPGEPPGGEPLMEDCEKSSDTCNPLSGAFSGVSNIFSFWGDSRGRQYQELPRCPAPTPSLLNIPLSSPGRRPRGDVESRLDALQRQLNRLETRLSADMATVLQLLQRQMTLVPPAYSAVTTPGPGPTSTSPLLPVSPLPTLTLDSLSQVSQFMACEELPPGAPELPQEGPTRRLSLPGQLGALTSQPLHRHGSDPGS
T1 sequence (P25103 whole entry): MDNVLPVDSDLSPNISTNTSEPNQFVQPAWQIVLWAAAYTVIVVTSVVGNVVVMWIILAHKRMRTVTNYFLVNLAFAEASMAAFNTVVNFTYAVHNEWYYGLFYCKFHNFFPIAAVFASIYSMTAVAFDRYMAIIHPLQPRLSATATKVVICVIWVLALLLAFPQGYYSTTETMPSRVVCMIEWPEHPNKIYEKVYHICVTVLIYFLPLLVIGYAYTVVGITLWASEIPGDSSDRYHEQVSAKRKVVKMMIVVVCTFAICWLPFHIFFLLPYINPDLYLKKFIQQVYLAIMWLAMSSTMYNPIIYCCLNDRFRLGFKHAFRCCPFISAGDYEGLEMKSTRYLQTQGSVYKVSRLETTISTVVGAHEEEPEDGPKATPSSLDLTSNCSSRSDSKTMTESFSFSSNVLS

Which results are given for `CN(C[C@@H](CCN1CC(N2[C@@H]3CC[C@H]2CC(O)C3)C1)c1ccc(F)cc1)C(=O)c1cc(Br)cc(C(F)(F)F)c1` (stereo partly drawn) [Ex 1, exo-3-Bromo-N-((2S)-2-(4-fluorophenyl)-4-{3-(3-hydroxy-8-azabicyclo[3.2.1]oct-8-yl)azetidin-1-yl}butyl)-N-methyl-5-(trifluoromethyl)benzamide dihydrochloride]?
Kb (human NK1 receptor): 7.94 nM; IC50 [1]: 13000 nM; Kb (human NK2 receptor): 7.94 nM; Kb (human NK3 receptor): 12.6 nM; microsomal CLint at 1 μM [2]: 28 µL/min/mg
